Measurements from the METLIN SMRT retention time set (Domingo-Almenara et al. 2019).

Test: gradient 5% acetonitrile 3 min, to 50% in 2 min, to 85% in 15 min, held 3 min, 100 µL/min
Settings: column: Zorbax Extend-C18 2.1 x 50 mm; eluents: water / acetonitrile, 0.1% formic acid
Outline: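 Pure standards were analyzed in mixtures of ~100 molecules using HPLC coupled to a quadrupole time-of-flight mass spectrometer, in both positive and negative ionization mode. Separation used a Zorbax Extend-C18 column (2.1 × 50 mm, 1.8 μm) at 100 μL/min, with water and acetonitrile each containing 0.1% formic acid. Dead and dwell volumes were 40 μL and 900 μL, and data were collected over 3 months. Retention time was read from computationally picked adduct peaks, each inspected manually.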

Going from `COc1ccc(-c2cn3c(CC(=O)Nc4ccccc4Cl)csc3n2)cc1OC` to `COc1cc(OC)c(NC(=O)COc2nc(C)nc3ccccc23)cc1Cl`, the RP-LC retention time rises from 728 s to 771 s.

First: O=C1Nc2ccccc2C(=O)N2CCCC12 (stereo not given)
Second: CCNC(=O)N1CCCC1c1nc(-c2ccccc2OC)no1 (stereo not given)
The RP-LC retention time of the first is lower: 590 s for the first, 698 s for the second.

Going from `O=S(=O)(NCCc1ccccn1)c1ccc2ccccc2c1` to `O=c1c(NCCc2ccccc2)nc2ccncc2n1Cc1ccccc1`, the RP-LC retention time rises from 574 s to 742 s.

Compared with `Cc1cc(Nc2cc(CN3CCOCC3)c3nc(C)c(Cc4ccc(Cl)cc4F)n3n2)n[nH]1`, `CCc1cc(=O)n(CC(=O)Nc2ccc(C)c(C)c2)c(N2CCOCC2)n1` is higher in RP-LC retention time: 712 s for the first, 798 s for the second.

Compared with `CCc1nc2c(c(=O)n1CC(=O)NCc1cccs1)CN(Cc1ccccc1)CC2`, `CCC(C(=O)NCc1ccccc1)n1cnc2nc3c(cc2c1=O)CCCC3` (stereo not given) is higher in RP-LC retention time: 624 s for the first, 774 s for the second.

Going from `Cc1ccc(C)c(NC(=O)Cn2cnc3c(sc4nc(-c5ccccc5)ccc43)c2=O)c1` to `CCC(C(=O)Nc1c(-c2ccc(F)cc2)nc2cc(C)ccn12)c1ccccc1` (stereo not given), the RP-LC retention time falls from 1050 s to 745 s.

First: Cc1nn(C)cc1C(=O)Nc1c(C)n(C)n(-c2ccccc2)c1=O
Second: Cc1ccc2oc(=O)n(Cc3noc(C(=O)NCC(C)c4ccccc4)n3)c2c1 (stereo not given)
The RP-LC retention time of the first is lower: 563 s for the first, 992 s for the second.

Going from `CN(C)c1ccc2c(c1)OC(N)=C(C#N)C2c1cccc(C(F)(F)F)c1` (stereo not given) to `CC(=O)Nc1ccc2c(c1)CN(C(=O)c1ccccc1C(F)(F)F)C(C(=O)N(C)C)C2` (stereo not given), the RP-LC retention time falls from 1020 s to 675 s.

Going from `CCCCn1nnc(NCc2ccc(-c3cc(Cl)ccc3Cl)o2)n1` to `CCOCCCNC(=O)c1ccc(OCc2nnc(C(=O)Nc3ccc(F)c(F)c3)s2)cc1`, the RP-LC retention time falls from 1220 s to 912 s.

Going from `O=C(NCc1ccc(Br)cc1)C1CCN(c2cncnc2N2CCCC2)CC1` to `Cc1ccc(C)c(CNC(=O)c2ccc(NC(=O)C3CC3)cc2N2CCOCC2)c1`, the RP-LC retention time rises from 704 s to 856 s.

Compared with `CCC(C)NC(=O)N1CCc2c(c(-c3nc(-c4cccc(F)c4)no3)nn2C)C1` (stereo not given), `CCc1nc(-c2csc(S(=O)(=O)N3CCC(C(=O)Nc4ccc(F)cc4C)CC3)c2)no1` is higher in RP-LC retention time: 904 s for the first, 963 s for the second.

Going from `Nc1nc(N)c2nc(-c3cccc(O)c3)c(-c3cccc(O)c3)nc2n1` to `COc1ccc(-c2nc(CNC(=O)c3coc(-c4ccccc4)n3)no2)cc1`, the RP-LC retention time rises from 630 s to 950 s.

Compared with `Cc1ccc(C2NC(=O)N(CC(=O)Nc3ccccc3F)C3=C2C(=O)OC3)cc1` (stereo not given), `Cc1ccc(NC(=O)N2CCC(n3cnc4cc(Cl)ccc4c3=O)CC2)cc1` is higher in RP-LC retention time: 786 s for the first, 856 s for the second.

Going from `COCC1(O)CCOC2(CCN(Cc3cccc(Cl)c3F)CC2)C1` (stereo not given) to `O=C(c1cccc(Cn2cncn2)c1)N1CCC2(CC1)OCCO2`, the RP-LC retention time rises from 560 s to 607 s.

First: CN(C)S(=O)(=O)c1ccc2c(c1)N(CC(=O)N1CCN(c3ccccn3)CC1)CCS2
Second: O=C(CCCN1C(=O)c2cccnc2Sc2ccccc21)N1CCN(c2ccccn2)CC1
The RP-LC retention time of the first is higher: 640 s for the first, 592 s for the second.

Compared with `O=[N+]([O-])c1cnc(Sc2ccncn2)s1`, `CCS(=O)(=O)c1nc2ccc(NS(=O)(=O)c3cnc[nH]3)cc2s1` is lower in RP-LC retention time: 843 s for the first, 652 s for the second.

Going from `C=CCNC(=O)C1CCCN(C(=O)Nc2ccc(NC(=O)Nc3ccccc3)cc2)C1` (stereo not given) to `COc1ccc(NC(=O)Cc2nnc3ccc(C(=O)Nc4ccccc4)cn23)cc1`, the RP-LC retention time rises from 707 s to 749 s.

Compared with `CC1CCCN(c2ccc(NC(=O)Cc3cccs3)c(C(=O)O)c2)C1` (stereo not given), `CCCNC(=O)C1CCCN(c2ccc(SCC(=O)Nc3cccc(CC)c3)nn2)C1` (stereo not given) is higher in RP-LC retention time: 685 s for the first, 733 s for the second.

Going from `COCCN1C(=O)c2cccn2CC1CNC(=O)Cn1nc(C(F)(F)F)cc1C` (stereo not given) to `CCCC(=O)Nc1ccc2nc(N3CCN(CC(=O)NCCOC)CC3)cc(C(=O)O)c2c1`, the RP-LC retention time rises from 703 s to 839 s.

Compared with `CCOc1nc2ccccc2nc1N1CCCC(C(=O)Nc2cc(Cl)ccc2C)C1` (stereo not given), `Cc1ccc(S(=O)(=O)N2CCCC(c3nnc(COc4ccccc4)o3)C2)c(C)c1` (stereo not given) is lower in RP-LC retention time: 1310 s for the first, 984 s for the second.

Going from `Fc1cccc(Cn2cc(-c3noc(-c4ccc5cc[nH]c5c4)n3)nn2)c1` to `COc1ccc(-c2cn3ccn(-c4cccc(F)c4)c(=O)c3n2)cc1`, the RP-LC retention time falls from 996 s to 821 s.

First: CNC(=O)[C@@H]1CN(C(=O)NCc2ccco2)C[C@H]1c1nc(C)no1
Second: CNC(=O)[C@@H]1CN(C(=O)c2cc(C)no2)C[C@H]1COC
The RP-LC retention time of the first is higher: 602 s for the first, 558 s for the second.

First: Cc1cnc(CCNC(=O)NCC(C)C)n1C1CCCCCC1
Second: CCc1nc(-c2csc(S(=O)(=O)N3CCCC(C(=O)NC4CCCCCCC4)C3)c2)no1 (stereo not given)
The RP-LC retention time of the first is lower: 588 s for the first, 1150 s for the second.

First: CN(C)c1cccc(-c2nc(-c3ccc(S(=O)(=O)N4CCCC4)cc3)no2)c1
Second: CC(=O)N1c2ccc(S(=O)(=O)N3CCCCC3)cc2CC1C(=O)NCCc1ccc(C)cc1 (stereo not given)
The RP-LC retention time of the first is higher: 1250 s for the first, 941 s for the second.

Compared with `O=C(Nc1nc2c(s1)CN(C(=O)c1cc(C3CC3)on1)CC2)c1ccco1`, `Cc1cccc2c(C(=O)NC(C)C)cc(N3CCCC3)nc12` is lower in RP-LC retention time: 710 s for the first, 611 s for the second.

First: Cc1cccc(N2C(=O)C(O)=C(C(=O)c3cccs3)C2c2ccc(Cl)cc2)n1 (stereo not given)
Second: CCOC(=O)c1cnc2nc(C)ccc2c1Nc1ccccc1F
The RP-LC retention time of the first is higher: 1040 s for the first, 684 s for the second.

Compared with `COc1ccc(-c2nc(C)cc(C)c2CNC(=O)C(C)(C)C)cc1`, `CCC(C)(C)C(=O)NC1CCN(C2=NS(=O)(=O)C(c3ccc(C(C)C)cc3)=C2C)CC1` is higher in RP-LC retention time: 613 s for the first, 1020 s for the second.

Going from `CCCn1c(CCc2ccccc2NS(=O)(=O)c2cnn(CC)c2)nc2ccccc21` to `CCN1CCn2cc(S(=O)(=O)Nc3cc(C)ccc3C)cc2C1=O`, the RP-LC retention time rises from 680 s to 752 s.

Going from `COc1cc(NC(=O)c2cn(-c3cc(N4CCC(C)CC4)ncn3)cn2)cc(OC)c1` to `COc1ccc(NC(=O)C2CCN(S(=O)(=O)c3ccc4c(c3)sc(=O)n4C(C)C)CC2)cc1`, the RP-LC retention time falls from 1110 s to 922 s.

Compared with `COCCCNC(=O)N1CC(n2cc(COc3ccc(F)cc3)nn2)C1`, `COCCc1nnc(NC(=O)COc2ccc(Cl)cc2)o1` is lower in RP-LC retention time: 691 s for the first, 655 s for the second.

Going from `CN1CCN(Cc2nc3cc(NC(=O)C4CCCCC4)ccc3n2C)CC1` to `O=C(NC1(c2nc(-c3ccncc3)no2)CCCCC1)C1CCCC1`, the RP-LC retention time rises from 574 s to 861 s.

Going from `O=C(Nc1ccc(S(=O)(=O)N2CCc3ccccc32)cc1)c1ccc(Br)o1` to `O=C(NCCN1CCOCC1)C1c2ccccc2CC(=O)N1Cc1ccccc1` (stereo not given), the RP-LC retention time falls from 960 s to 603 s.

Going from `C=CCNC(=O)NC1CCN(C2=NS(=O)(=O)C(c3ccccc3)=C2C)CC1` to `Cc1ccc(Nc2nc(C(=O)NC3CCCCC3)nc3ccccc23)cc1`, the RP-LC retention time rises from 705 s to 906 s.

Compared with `O=c1cccnn1CCNS(=O)(=O)c1cccnc1`, `CCS(=O)(=O)N1C[C@@H](COc2cccnc2)[C@H](c2ccccn2)C1` is lower in RP-LC retention time: 565 s for the first, 561 s for the second.

Going from `CC(C)(C)c1ccc(S(=O)(=O)N2CCC(C(=O)NCc3cscn3)CC2)cc1` to `COC1CN(c2cccc(F)c2)C12CCN(S(=O)(=O)c1cccc(F)c1)CC2` (stereo not given), the RP-LC retention time rises from 869 s to 1200 s.

Compared with `COC(=O)c1ccc(N2C=C(C#N)S(=O)(=O)c3ccc(C)cc32)cc1`, `CNC(=O)c1ccc(-n2c(C)ccc2C)nc1` is lower in RP-LC retention time: 887 s for the first, 697 s for the second.

First: CSc1ncccc1C(=O)N1CCCn2nc(-c3cccc(Cl)c3)cc2C1
Second: CCn1ccc(C(=O)N2CCCn3nc(-c4ccc(C)cc4)cc3C2)n1
The RP-LC retention time of the first is higher: 827 s for the first, 805 s for the second.

Going from `N#Cc1cc2c(nc1SCC(=O)N1CCOCC1)CCCCC2` to `O=C1NCCCCCN(C(=O)c2ccoc2)[C@@H]2C[C@@H](C(=O)N3CCc4ccccc4C3)C[C@H]12`, the RP-LC retention time falls from 891 s to 753 s.

First: CSc1ccc(-c2noc(Cc3nnc(-c4ccc(C)c(C)c4)o3)n2)cc1
Second: CCn1cnc2cc(-c3noc(C4CC(=O)N(c5ccc(C)c(C)c5)C4)n3)ccc21 (stereo not given)
The RP-LC retention time of the first is higher: 1190 s for the first, 734 s for the second.

Going from `Cc1oc2ncn(CC(=O)N3CCC(C(N)=O)CC3)c(=O)c2c1C` to `Cc1noc(-c2csc(C(=O)N3CCCC3)n2)n1`, the RP-LC retention time rises from 613 s to 688 s.

Compared with `CCSc1nc2ccc(NS(=O)(=O)c3cc(C)cc(C)c3)cc2s1`, `Cc1ccccc1-c1nc2cnccn2c1NCCC(=O)NC(C)C` is lower in RP-LC retention time: 1120 s for the first, 605 s for the second.

Going from `O=C(c1ccc2c(=O)n(Cc3ccccc3)c(N3CCCC3)nc2c1)N1CCN(c2ccccn2)CC1` to `COc1ccccc1N1CCN(C(=O)c2cn3ccccc3n2)CC1`, the RP-LC retention time falls from 655 s to 603 s.

Going from `COc1ccccc1Cc1noc(C2CN(C(=O)c3cncc(Br)c3)C2)n1` to `Fc1ccc(Nc2c(-c3ccccc3)nc3cnccn23)cc1`, the RP-LC retention time rises from 777 s to 844 s.

First: CCCNc1cc(N2CCC(CCC(=O)N3CCCN(c4ncccn4)CC3)CC2)ncn1
Second: O=C(NCCn1c(-c2ccc(F)cc2)nc2cccnc21)c1ccc2c(c1)OCO2
The RP-LC retention time of the first is lower: 573 s for the first, 697 s for the second.

Compared with `C=CCNC(=O)c1nnn(Cc2ccc(Cl)cc2)c1-n1cccc1`, `COc1cc(NC(=O)NC(C)C)c2ncccc2c1` is lower in RP-LC retention time: 954 s for the first, 757 s for the second.
